Experimental data from patent US20200123620A1, “MiRNA-574-5p AS A BIOMARKER FOR STRATIFICATION OF PROSTAGLANDIN E-DEPENDENT TUMORS” (priority 2017, published 2020).

Tests used:
Type in all cases: cell-based, human
[1] = tested on: mPGES-1; experiment: mPGES-1 expression in transfected A549 cells (qRT-PCR, Western blot); details: IL-1β 24 h, then 24 h stimulus-free medium
Experimental: (§1) CUGBP1 and GW182 were transiently depleted using siRNA oligonucleotides. 24 h prior to transfection, A549 cells were seeded at a density of 5×10^5 cells/well in a 6-well plate. 20 pmol/μl siRNA oligonucleotides were transfected using Lipofectamine 2000N (Invitrogen, Karlsruhe, GER) according to manufacturer's instructions. For GW182 knockdown, MISSION® siRNA SAS1_Hs01_00244664 (Sigma-Aldrich, Darmstadt. GER) were used, respectively. For CUGBP1 knockdown a previously published siRNA (5′-GCUGUUUAUUGGUAUGAUU-3′; SEQ ID NO:5) was used for our experiments. As control, a siRNA with an unspecific sequence was used (5′-UCUCUCACAACGGGCAUUU-3′; SEQ ID NO: 6). Cells were harvested 24 h and 48 h after transfection. The efficiency of CUGBP1 and GW182 knockdown was determined by qRT-PCR, Western blot and immunofluorescence staining.
24 h prior to transfection, A549 cells were seeded at a density of 5×10^5 per well in a 6-well plate. 20 pmol/μl miRIDIAN miR-574-5p mimics (HM10794, Sigma-Aldrich, Darmstadt, GER) or negative control (HMC0002, Sigma-Aldrich, Darmstadt, GER) were transfected using Lipofectamine 2000® according to the manufacturer's instructions. In the same way, the A549 cells were transfected with 40 pmol/μl miR-574-5p-LNA™ inhibitor (4101451-001) or negative control (199006-001, Exiqon, Kopenhagen, DEN) for the knockdown of miR-574-5p. The transfection efficiency was determined by qRT-PCR.
(§2) 1 μg of DNase-treated RNA was used for reverse transcription using High-Capacity RNA-to-cDNA Kit (Applied Biosystems, ThermoFisher Scientific, Waltham, USA) according to manufacturer's instructions. […] 1 μl cDNA (1:2 diluted) was used per reaction. β-Actin was used as endogenous control to normalize variations in cDNA quantities in different samples.
(§3) To obtain a whole cell lysate, A549 cells were lysed in T-PER™ tissue protein extraction reagent (Life Technologies, ThermoFisher Scientific, Waltham, USA) for 30 min at 4° C. […] The protein content was determined by Bradford assay (BioRad Laboratories, Hercules, USA). […]

[2] = tested on: COX-2; experiment: COX-2 expression in transfected A549 cells (qRT-PCR, Western blot); details: mRNA and protein
Experimental: as §1, with “Cells were harvested 24 h and 48 h after transfection.” left out
as §2, §3

[3] = tested on: A549 cells; experiment: MTT cell proliferation assay; details: data not shown
Experimental: For the detection of viable cells, an MTT (3-(4,5-dimethylthiazol-2-yl)-2,5-diphenyltetrazolium bromide) tetrazolium (Carl Roth, Karlsruhe, GER) reduction assay was performed. 24 h prior transfection, A549 cells were seeded at a density of 1×10^4 cells per well in 96-well plates. For the MTT reduction assay, 20 μl of 5 mg/ml MTT (in PBS) was added to the cells in culture and so incubated for 4 h. The medium was removed and 100 μl DMSO (Carl Roth, Karlsruhe, GER) was added. The quantity of formazan was measured by recording changes in the absorbance at 570 nm using a plate reading spectrophotometer. As a reference the wavelength of […] was used to correct for nonspecific background.

Question: “5′-GCUGUUUAUUGGUAUGAUU-3′ (listed as RNA, chemistry not given here) [ΔCUGBP1]” was tested. Which mPGES-1 protein expression ([1]; Western blot) did it give?
Answer: strongly upregulated

Question: What about the “mPGES-1 3′UTR isoform expression” value ([1]; qRT-PCR) of the same substance?
Answer: further increases

Question: What about the “mPGES-1 mRNA expression” value ([1]; qRT-PCR) of the same substance?
Answer: significantly upregulates

Question: What about the COX-2 level [2] of the same substance?
Answer: uninfluenced

Question: What about the “IL1β-induced cell proliferation of A549 cells” value [3] of the same substance?
Answer: enhanced
